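Where inhibition never reached the appropriate level, the endpoint shown equals the highest concentration tested. Otherwise, values were interpolated linearly from a five-concentration, 48-hour dose response in 96-well plates. GI50: concentration for 50% inhibition of growth.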 Activity calls are given as the source filed them. Cut-off read from the data, not from the text of the source: active = GI50 up to about 1.1 µM and inactive = higher.
Columns and labels:
Experiment in all cases: DTP human tumour cell line panel, 48 h
[1] = system: A549
[2] = system: SF-539
[3] = system: CAKI-1
[4] = system: TK-10
[5] = system: 786-0
[6] = system: HCT-15
[7] = system: DU-145
[8] = system: UACC-257
[9] = system: NCI-H23
[10] = system: SK-OV-3
[11] = system: EKVX
[12] = system: NCI-H522
[13] = system: SK-MEL-28
[14] = system: SW-620
[15] = system: SF-268
[16] = system: COLO 205
[17] = system: OVCAR-4
[18] = system: M14
[19] = system: KM12
[20] = system: MDA-N
[21] = system: HT-29
[22] = system: HOP-92
[23] = system: BT-549
[24] = system: NCI/ADR-RES
[25] = system: OVCAR-3
[26] = system: T47D
[27] = system: OVCAR-8
[28] = system: HCT-116
[29] = system: UO-31
[30] = system: MDA-MB-435
[31] = system: A498
[32] = system: PC-3
[33] = system: HCC 2998
[34] = system: SNB-75
[35] = system: OVCAR-5
[36] = system: SR
[37] = system: MDA-MB-231
[38] = system: MCF7
[39] = system: U-251
[40] = system: HOP-62
[41] = system: LOX IMVI
[42] = system: IGROV-1
[43] = system: MOLT-4
[44] = system: SK-MEL-2
[45] = system: SNB-19
[46] = system: RXF 393
[47] = system: UACC-62
[48] = system: SF-295
[49] = system: Hs-578T
[50] = system: RPMI-8226
[51] = system: K562
[52] = system: Malme-3M
[53] = system: SK-MEL-5
[54] = system: NCI-H460
[55] = system: ACHN
[56] = system: SN12C
[57] = system: HL-60
[58] = system: CCRF-CEM
[59] = system: NCI-H226

CNC(=O)C(C)NC(=O)C(Cc1ccccc1)NC(=O)c1ccccc1 (stereo not given)
GI50 [1]: > 100 µM (inactive) | GI50 [2]: > 100 µM (inactive) | GI50 [3]: > 100 µM (inactive) | GI50 [4]: > 100 µM (inactive) | GI50 [5]: > 100 µM (inactive) | GI50 [6]: > 100 µM | GI50 [7]: > 100 µM (inactive) | GI50 [8]: > 100 µM (inactive) | GI50 [9]: > 100 µM (inactive) | GI50 [10]: > 100 µM (inactive) | GI50 [11]: > 100 µM (inactive) | GI50 [12]: > 100 µM (inactive) | GI50 [13]: > 100 µM (inactive) | GI50 [14]: > 100 µM (inactive) | GI50 [15]: > 100 µM (inactive) | GI50 [16]: > 100 µM (inactive) | GI50 [17]: > 100 µM (inactive) | GI50 [18]: > 100 µM (inactive) | GI50 [19]: > 100 µM (inactive) | GI50 [20]: > 100 µM (inactive) | GI50 [21]: > 100 µM (inactive) | GI50 [22]: > 100 µM (inactive) | GI50 [23]: > 100 µM (inactive) | GI50 [24]: > 100 µM (inactive) | GI50 [25]: > 100 µM (inactive) | GI50 [26]: > 100 µM (inactive) | GI50 [27]: > 100 µM (inactive) | GI50 [28]: > 100 µM (inactive) | GI50 [29]: > 100 µM (inactive) | GI50 [30]: > 100 µM (inactive) | GI50 [31]: > 100 µM (inactive) | GI50 [32]: > 100 µM (inactive) | GI50 [33]: > 100 µM (inactive) | GI50 [34]: > 100 µM (inactive) | GI50 [35]: > 100 µM (inactive) | GI50 [36]: > 100 µM (inactive) | GI50 [37]: > 100 µM (inactive) | GI50 [38]: > 100 µM (inactive) | GI50 [39]: > 100 µM (inactive) | GI50 [40]: > 100 µM (inactive) | GI50 [41]: > 100 µM (inactive) | GI50 [42]: > 100 µM (inactive) | GI50 [43]: > 100 µM (inactive) | GI50 [44]: > 100 µM (inactive) | GI50 [45]: > 100 µM (inactive) | GI50 [46]: > 100 µM (inactive) | GI50 [47]: > 100 µM (inactive) | GI50 [48]: > 100 µM (inactive) | GI50 [49]: > 100 µM (inactive) | GI50 [50]: > 100 µM (inactive) | GI50 [51]: > 100 µM (inactive) | GI50 [52]: > 100 µM (inactive) | GI50 [53]: > 100 µM (inactive) | GI50 [54]: > 100 µM (inactive) | GI50 [55]: > 100 µM (inactive) | GI50 [56]: > 100 µM (inactive) | GI50 [57]: > 100 µM (inactive) | GI50 [58]: > 100 µM (inactive) | GI50 [59]: > 100 µM (inactive)

O=C1c2cc([N+](=O)[O-])sc2C(=O)c2c([N+](=O)[O-])csc21
GI50 [1]: 1.9 µM (inactive) | GI50 [2]: 0.349 µM (active) | GI50 [3]: 1.11 µM (active) | GI50 [4]: 1.63 µM (inactive) | GI50 [5]: 0.483 µM (active) | GI50 [6]: 0.482 µM | GI50 [7]: 1.7 µM (inactive) | GI50 [8]: 0.386 µM (active) | GI50 [9]: 0.711 µM (active) | GI50 [10]: 1.68 µM (inactive) | GI50 [11]: 1.48 µM (inactive) | GI50 [12]: 0.6 µM (active) | GI50 [13]: 0.713 µM (active) | GI50 [14]: 0.31 µM (active) | GI50 [15]: 0.708 µM (active) | GI50 [16]: 0.925 µM (active) | GI50 [17]: 0.64 µM (active) | GI50 [18]: 0.367 µM (active) | GI50 [19]: 1.24 µM (inactive) | GI50 [20]: 0.189 µM (active) | GI50 [21]: 1.17 µM (inactive) | GI50 [22]: 0.29 µM (active) | GI50 [23]: 0.802 µM (active) | GI50 [24]: 1.48 µM (inactive) | GI50 [25]: 0.122 µM (active) | GI50 [26]: 0.69 µM (active) | GI50 [27]: 0.785 µM (active) | GI50 [28]: 0.456 µM (active) | GI50 [29]: 1.87 µM (inactive) | GI50 [30]: 0.168 µM (active) | GI50 [31]: 1.92 µM (inactive) | GI50 [32]: 1.33 µM (inactive) | GI50 [33]: 0.782 µM (active) | GI50 [34]: 1.77 µM (inactive) | GI50 [35]: 1.65 µM (inactive) | GI50 [36]: 0.0479 µM (active) | GI50 [37]: 0.551 µM (active) | GI50 [38]: 0.365 µM (active) | GI50 [39]: 0.379 µM (active) | GI50 [41]: 0.112 µM (active) | GI50 [42]: 0.4 µM (active) | GI50 [43]: 0.229 µM (active) | GI50 [44]: 1.53 µM (inactive) | GI50 [45]: 1.63 µM (inactive) | GI50 [46]: 0.706 µM (active) | GI50 [47]: 0.378 µM (active) | GI50 [48]: 0.968 µM (active) | GI50 [49]: 0.65 µM (active) | GI50 [50]: 0.282 µM (active) | GI50 [51]: 0.116 µM (active) | GI50 [52]: 0.274 µM (active) | GI50 [53]: 0.166 µM (active) | GI50 [54]: 1.55 µM (inactive) | GI50 [55]: 0.324 µM (active) | GI50 [56]: 0.542 µM (active) | GI50 [57]: 0.0382 µM (active) | GI50 [58]: 0.0759 µM (active) | GI50 [59]: 1.52 µM (inactive)

Cc1nc(SCC(=O)Nc2ccc(Cl)cc2)c2sc(=S)n(-c3ccccc3)c2n1
GI50 [1]: > 10 µM (inactive) | GI50 [2]: > 10 µM (inactive) | GI50 [3]: > 10 µM (inactive) | GI50 [4]: > 10 µM (inactive) | GI50 [5]: > 10 µM (inactive) | GI50 [6]: > 10 µM | GI50 [7]: > 10 µM (inactive) | GI50 [8]: > 10 µM (inactive) | GI50 [9]: > 10 µM (inactive) | GI50 [10]: > 10 µM (inactive) | GI50 [11]: > 10 µM (inactive) | GI50 [12]: > 10 µM (inactive) | GI50 [13]: > 10 µM (inactive) | GI50 [14]: > 10 µM (inactive) | GI50 [15]: > 10 µM (inactive) | GI50 [16]: > 10 µM (inactive) | GI50 [17]: > 10 µM (inactive) | GI50 [18]: > 10 µM (inactive) | GI50 [19]: > 10 µM (inactive) | GI50 [20]: > 10 µM (inactive) | GI50 [21]: > 10 µM (inactive) | GI50 [22]: 5.15 µM (inactive) | GI50 [23]: > 10 µM (inactive) | GI50 [24]: > 10 µM (inactive) | GI50 [25]: > 10 µM (inactive) | GI50 [26]: > 10 µM (inactive) | GI50 [27]: > 10 µM (inactive) | GI50 [28]: > 10 µM (inactive) | GI50 [30]: > 10 µM (inactive) | GI50 [31]: > 10 µM (inactive) | GI50 [32]: > 10 µM (inactive) | GI50 [33]: > 10 µM (inactive) | GI50 [34]: > 10 µM (inactive) | GI50 [35]: > 10 µM (inactive) | GI50 [36]: 6.28 µM (inactive) | GI50 [37]: > 10 µM (inactive) | GI50 [38]: > 10 µM (inactive) | GI50 [39]: > 10 µM (inactive) | GI50 [40]: > 10 µM (inactive) | GI50 [41]: > 10 µM (inactive) | GI50 [42]: > 10 µM (inactive) | GI50 [43]: > 10 µM (inactive) | GI50 [44]: > 10 µM (inactive) | GI50 [45]: > 10 µM (inactive) | GI50 [46]: > 10 µM (inactive) | GI50 [47]: > 10 µM (inactive) | GI50 [48]: > 10 µM (inactive) | GI50 [49]: > 10 µM (inactive) | GI50 [50]: > 10 µM (inactive) | GI50 [51]: 6.41 µM (inactive) | GI50 [52]: > 10 µM (inactive) | GI50 [53]: > 10 µM (inactive) | GI50 [54]: > 10 µM (inactive) | GI50 [55]: > 10 µM (inactive) | GI50 [56]: > 10 µM (inactive) | GI50 [57]: > 10 µM (inactive) | GI50 [58]: > 10 µM (inactive) | GI50 [59]: > 10 µM (inactive)

— ChEMBL document CHEMBL1201862, “PubChem BioAssay data set” (2004)
